Data on 1 compound can be found in publication PMC8775721, “Pharmacological Dissection of the Crosstalk between NaV and CaV Channels in GH3b6 Cells” (International Journal of Molecular Sciences, 2022).

Structures are written as SMILES.

The assay concerns the target T1, NaV1.3 (Rattus norvegicus, UniProt P08104).
T1 construct: gene Scn3a
Nature of the assay: manual whole-cell patch-clamp of endogenous INa in GH3b6 cells. The assay is classed as cell-based. Particulars: read-out: % reduction of INa amplitude at 1 μM. (In general: In patch-clamp work, channel activity is measured electrically.)

T1 sequence (P08104 whole entry): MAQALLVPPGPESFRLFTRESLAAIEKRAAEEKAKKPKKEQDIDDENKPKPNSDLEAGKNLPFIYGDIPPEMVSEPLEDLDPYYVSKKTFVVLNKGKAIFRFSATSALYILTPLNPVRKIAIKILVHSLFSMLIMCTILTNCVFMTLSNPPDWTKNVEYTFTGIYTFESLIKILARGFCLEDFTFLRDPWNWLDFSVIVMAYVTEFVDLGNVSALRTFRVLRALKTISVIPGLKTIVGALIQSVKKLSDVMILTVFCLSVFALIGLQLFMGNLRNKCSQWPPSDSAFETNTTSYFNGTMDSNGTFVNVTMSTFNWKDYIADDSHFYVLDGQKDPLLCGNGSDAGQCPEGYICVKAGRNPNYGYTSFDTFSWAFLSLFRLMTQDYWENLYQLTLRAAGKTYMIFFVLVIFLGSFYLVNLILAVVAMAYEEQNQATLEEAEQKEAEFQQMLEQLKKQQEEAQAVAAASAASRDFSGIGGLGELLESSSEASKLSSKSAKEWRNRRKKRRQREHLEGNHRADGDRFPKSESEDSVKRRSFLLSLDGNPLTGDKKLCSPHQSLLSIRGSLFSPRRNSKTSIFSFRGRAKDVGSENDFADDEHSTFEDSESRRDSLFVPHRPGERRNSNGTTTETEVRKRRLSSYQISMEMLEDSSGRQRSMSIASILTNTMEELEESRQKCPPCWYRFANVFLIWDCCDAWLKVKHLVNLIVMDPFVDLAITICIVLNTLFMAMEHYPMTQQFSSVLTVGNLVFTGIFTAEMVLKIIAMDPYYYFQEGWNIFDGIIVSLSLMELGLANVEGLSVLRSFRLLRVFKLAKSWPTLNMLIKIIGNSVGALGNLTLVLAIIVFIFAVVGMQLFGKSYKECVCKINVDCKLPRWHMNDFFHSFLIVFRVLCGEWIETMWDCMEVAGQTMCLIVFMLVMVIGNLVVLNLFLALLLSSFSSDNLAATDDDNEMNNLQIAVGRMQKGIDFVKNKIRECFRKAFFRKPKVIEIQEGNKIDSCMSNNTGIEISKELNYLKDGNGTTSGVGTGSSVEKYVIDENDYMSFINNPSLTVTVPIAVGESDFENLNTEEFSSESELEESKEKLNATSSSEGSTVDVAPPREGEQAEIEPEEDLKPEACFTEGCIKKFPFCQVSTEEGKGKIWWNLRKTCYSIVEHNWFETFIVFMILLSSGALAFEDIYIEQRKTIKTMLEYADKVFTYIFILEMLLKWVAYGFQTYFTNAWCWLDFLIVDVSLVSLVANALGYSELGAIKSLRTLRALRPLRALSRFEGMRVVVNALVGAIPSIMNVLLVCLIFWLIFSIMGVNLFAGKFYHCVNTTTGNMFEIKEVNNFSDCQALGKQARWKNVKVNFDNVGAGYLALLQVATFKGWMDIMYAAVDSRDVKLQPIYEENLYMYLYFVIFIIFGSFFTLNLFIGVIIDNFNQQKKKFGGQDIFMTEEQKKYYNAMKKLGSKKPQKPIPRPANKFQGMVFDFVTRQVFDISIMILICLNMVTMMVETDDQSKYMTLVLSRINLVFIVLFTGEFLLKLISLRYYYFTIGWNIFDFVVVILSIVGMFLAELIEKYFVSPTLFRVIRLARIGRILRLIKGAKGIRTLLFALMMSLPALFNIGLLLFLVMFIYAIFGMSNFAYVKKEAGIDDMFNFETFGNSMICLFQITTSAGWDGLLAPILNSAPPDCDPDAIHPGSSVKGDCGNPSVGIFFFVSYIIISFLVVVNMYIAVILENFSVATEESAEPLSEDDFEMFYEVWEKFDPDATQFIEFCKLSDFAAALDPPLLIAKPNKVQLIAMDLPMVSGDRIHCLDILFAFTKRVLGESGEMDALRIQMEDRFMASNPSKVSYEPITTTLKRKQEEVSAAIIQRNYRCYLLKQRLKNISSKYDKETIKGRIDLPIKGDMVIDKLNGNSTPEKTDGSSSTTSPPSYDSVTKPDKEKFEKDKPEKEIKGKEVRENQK

For the compound `O=C(Nc1ccc(S(=O)(=O)Nc2nccs2)cc1)C(c1ccccc1)c1ccccc1` [ICA-121431], the inhibition at 1 µM is 50%.
